SMILES strings stand for the structures.

These results are taken from patent US20070196344A1, “Methods for identifying materials that can help regulate the condition of mammalian keratinous tissue” (The Procter & Gamble Company, priority 2006, published 2007).

One experiment relates to Hyaluronic Acid. The experiment can be described thus: Hyaluronic acid ELISA on extracts of treated MatTek EpiDermFT (EFT-200) full thickness skin equivalent cultures. Conditions: topical 0.5%, 1.0%, 2.0% in water, 20-24 hours, EFT-200 cultures, vs vehicle Control; dose-responsive. The class given is cell-based, human. The method, then: (§1) To evaluate skin anti-aging benefits of n-acetyl glucosamine and niacinamide. An in vitro skin biomarker experiment is conducted using the MatTek Human Skin EpiDermFT Skin Model (EFT 200; MatTek Corp., Ashland, Mass. USA). The MatTek Skin Model is a full thickness culture system that emulates normal human skin properties and function. It contains a three-dimensional, highly differentiated human epidermis with 8-12 cell layers including basal, spinous, granular and stratum corneum layers; the epidermis is grown above a human dermal fibroblast-containing collagen matrix. The MatTek cultures are air-interfaced, so that test substances can be applied topically to the stratum corneum surface. The cultures are supplied in 24-well, medium-supplemented agarose gels.
(§2) MatTek EFT-200 full thickness skin equivalent cultures used are examined for visual defects and equilibrated overnight after their arrival from the supplier. After treatment with test materials the cultures' viability is confirmed through MTT viability assay. […]
(§3) After treatment for 20-24 hours, replicate (3) cultures are extracted using a mild extraction buffer (T-per). The extract is then analyzed for hyaluronic acid and procollagen-1.
(§4) • 1. […] Analyze supernatant with the Micro BCA kit to quantitate protein concentration. • 4. […]
On the technique in general: ELISA stands for enzyme-linked immunosorbent assay.

The subject of another experiment is Procollagen I. The experiment can be described thus: Procollagen I ELISA on extracts of treated MatTek EpiDermFT (EFT-200) full thickness skin equivalent cultures. Conditions: topical 0.5%, 2.0% in water, 20-24 hours, EFT-200 cultures, vs vehicle Control, dose-responsive. Type of experiment: cell-based, human. The method, then:
as §1, §2, §3, §4

Take `CC(=O)N[C@@H]1[C@@H](O)[C@H](O)[C@@H](CO)O[C@H]1O` [n-Acetyl Glucosamine]: the “expression of hyaluronic acid” value in the experiment with Hyaluronic Acid is “significantly increased over Control”. The “expression of procollagen 1” value in the experiment on Procollagen I is recorded as “significantly increased over Control”.
